Measurements reported in PubChem BioAssay AID1996.
Values after ≈ are worked out from the molar mass of the structure shown.

Settings: buffer; pH 7.4; 200.0 µM

| SMILES | solubility kinetic [µg/mL] |
| --- | --- |
| COCCCNC(=O)c1cc(S(=O)(=O)NCCCN2CCCC2=O)ccc1Cl | > 64.8 |
| Cn1ccsc1=NC(=O)c1ccc(S(C)(=O)=O)cc1 | > 44.5 |
| CC(C)(C)C(=O)N(Cc1ccc(Cl)cc1)c1cnccn1 | > 45.6 |
| COc1ccc(OC)c(CN2CCCC(C(=O)c3sccc3C)C2)c1 (stereo not drawn) | > 53.9 |
| O=C(O)c1ccccc1C(=O)NCCc1ccc(Cl)cc1 | 43.3 (≈ 143 µM) |
| CN(C)/C=C1/NC(=S)NC1=O | > 25.7 |
| CCCOC(=O)Nc1sc2c(c1C(N)=O)CCCC2 | 1.3 (≈ 4.6 µM) |
| O=[N+]([O-])c1ccc(-c2csc(N3CCCCCC3)n2)cc1 | 0.6 (≈ 1.98 µM) |
| CNC(=O)C(=O)Nc1c(O)c2ccccc2[nH]c1=O | > 39.2 |
| CN(C)c1cc(-c2ccc(Cl)c(Cl)c2)oc(=O)c1Cl | 0.7 (≈ 2.2 µM) |
| Cc1cc(NC(=O)COC(=O)c2ccccc2Cl)no1 | 16.3 (≈ 55.3 µM) |
| COc1cccc(C(=O)N(C)C(C)c2nc3ccccc3s2)c1 (stereo not drawn) | > 49 |
| COc1ccc(-c2nc(N)ncc2-c2ccccc2)c(O)c1 | 0.9 (≈ 3.07 µM) |
| Cc1ccc(C(=O)NC(=S)N2CCCCCC2)cc1 | > 41.5 |
| CC(=O)Nc1c(-c2ccccc2)nc2cc(C)ccn12 | 29.4 (≈ 111 µM) |
| N#Cc1c(/N=C/c2ccc(-c3ccccc3C(=O)O)o2)sc2c1CCCC2 | > 56.5 |
| CCC(C)NC(=O)c1ccc(NC(=O)C2=C(C)OCCS2)cc1 (stereo not drawn) | > 50.2 |
| Cc1ccc(S(=O)(=O)NCCc2ccncc2)cc1C | > 43.6 |
| Cc1c(C)c(C)c(CN2CCCC2)c(C)c1C | 29.4 (≈ 127 µM) |
| Cc1nc(SCC(=O)Nc2cccc(S(=O)(=O)N3CCOCC3)c2)nc(C)c1C | 29.5 (≈ 67.6 µM) |
| C=CCNC(=O)N[C@@H](Cc1ccccc1)C(=O)OC | > 39.3 |
| O=C(Nc1ccc(NS(=O)(=O)c2ccccc2)cc1)c1ccccc1Cl | 6.1 (≈ 15.8 µM) |
| O=C1CSC(c2cccc([N+](=O)[O-])c2)N1CCc1ccccc1 (stereo not drawn) | 25.8 (≈ 78.6 µM) |
| CC(C)(C)c1ccc(C(=O)NCCc2ccccc2)cc1 | 0.8 (≈ 2.84 µM) |
| CC(=O)c1cccc(OCCCOc2cccc3cccnc23)c1 | 37.2 (≈ 116 µM) |

| SMILES | solubility kinetic [µg/mL] |
| --- | --- |
| CCc1nnc(NC(=O)CCC(=O)NC2CC2)s1 | > 40.2 |
| O=C(Nc1ccccc1Cl)OC1CCCCC1 | < 0.5 |
| O=C(CCNC(=O)c1ccco1)Nc1ccccc1N1CCOCC1 | > 51.5 |
| CCc1sc(C(=O)NCc2ccco2)cc1Br | 25.9 (≈ 82.4 µM) |
| Cc1ccc(OCC(=O)NC2CCSc3ccccc32)cc1 (stereo not drawn) | 11.8 (≈ 37.6 µM) |
| CCOC(=O)N(C)S(=O)(=O)c1ccccc1[N+](=O)[O-] | 42.9 (≈ 149 µM) |
| N#Cc1ccccc1NC(=O)COc1ccc2c(c1)OCO2 | 17.1 (≈ 57.7 µM) |
| CNC(=S)N1CCn2cccc2C1c1cc(OC)c(OC)c(OC)c1 (stereo not drawn) | > 54.2 |
| CCOC(=O)NC(N(O)c1cccc(Cl)c1)C(Cl)(Cl)Cl (stereo not drawn) | 37.1 (≈ 102 µM) |
| COc1ccc(Nc2nc(N)c(C(=O)c3ccc(F)cc3)s2)cc1 | 5.2 (≈ 15.1 µM) |
| CN(C)S(=O)(=O)Nc1cccc(-c2cn3c(n2)SCC3)c1 | > 48.7 |
| O=C(CCl)Nc1nccs1 | > 26.5 |
| COc1ccc(N(CC(=O)Nc2cccnc2)S(=O)(=O)c2ccccc2)cc1Cl | 34.2 (≈ 79.2 µM) |
| CC(=O)c1cccc(Oc2ncccn2)c1 | > 32.1 |
| COc1ccccc1OC(=O)Nc1ccc(Cl)cc1 | 17.8 (≈ 64.1 µM) |
| Cc1ccc(CCN2CC(C(=O)NCCN(C)C)CC2=O)cc1 (stereo not drawn) | > 47.6 |
| CC(=O)Nc1ccccc1C(=O)OCC(=O)Nc1ncccn1 | > 47.1 |
| CCOC(=O)c1sc(-c2cccc(C(F)(F)F)c2)nc1O | 36.5 (≈ 115 µM) |
| COc1ccc(C2SCC(=O)N2c2ccccc2)cc1 (stereo not drawn) | 38.6 (≈ 135 µM) |
| CCOC(=O)CC(NC(=O)c1ccc(C)cc1)c1ccc(OC)cc1 (stereo not drawn) | 8.5 (≈ 24.9 µM) |
| O=C(NCCCNC(=O)c1ccc(F)cc1)c1ccc(F)cc1 | 30.9 (≈ 97.1 µM) |
| O=C(O)c1cccc(NC(=S)NCc2ccccc2)c1 | > 43 |
| CCNC(=O)CSc1nc(-c2ccc(F)cc2)cs1 | 42.8 (≈ 144 µM) |
| CCCCSc1nc(O)cc(=O)n1CC | 33.4 (≈ 146 µM) |
| COC(=O)c1ccccc1NC(=O)N1CCN(c2ccc(F)cc2)CC1 | 4.4 (≈ 12.3 µM) |

| SMILES | solubility kinetic [µg/mL] |
| --- | --- |
| Cc1cc(C(=O)NN=C2CCCC2)c2ccccc2n1 | > 40.1 |
| O=C(COC(=O)c1cc(S(=O)(=O)N2CCCCC2)ccc1Cl)NC1CCS(=O)(=O)C1 (stereo not drawn) | > 71.8 |
| Cc1cccc(NS(=O)(=O)c2c(C)noc2C)c1 | > 39.9 |
| COc1ccc([N+](=O)[O-])cc1C(=O)C(=O)c1ccccc1 | < 0.6 |
| Cc1ccc(C(=O)Nc2ccccc2N2CCCCC2)o1 | 2.8 (≈ 9.85 µM) |
| CCOC(=O)c1cc2c(ccc3nc(C)c(C)c32)[nH]c1C | < 0.3 |
| CNc1nnc(-c2ccc(OC)cc2)s1 | > 33.2 |
| CC(=O)N1CCN(C(=O)COC(=O)c2ccc(S(C)(=O)=O)cc2)CC1 | > 55.3 |
| CCC(Oc1ccccc1)C(=O)Nc1ncc([N+](=O)[O-])s1 (stereo not drawn) | > 46.1 |
| COc1cccc(OCCNC(=O)c2ccc(C)cc2)c1 | 41.9 (≈ 147 µM) |
| O=C(c1cccc([N+](=O)[O-])c1)N1CCN(Cc2ccccc2)CC1 | > 48.8 |
| Cc1ccc(NC(=O)Cc2c(F)cccc2Cl)cc1S(=O)(=O)N1CCOCC1 | 2 (≈ 4.68 µM) |
| O=C(C1CC1)N1CCc2sccc2C1c1ccc(Cl)cc1 (stereo not drawn) | < 0.7 |
| COC(=O)C1C(O)=C(C=Nc2ccccc2)C(=O)CC1(C)C (stereo not drawn) | > 45.2 |
| COCCCn1c(=O)c2sccc2n(Cc2ccccc2)c1=O | 49.4 (≈ 150 µM) |
| CCCn1c(SCC(=O)NC2CCCC2)nnc1-c1cccnc1 | > 51.8 |
| COc1cccc(C(=O)NNC(=O)CCC(=O)O)c1 | > 39.9 |
| O=C(CCS(=O)(=O)c1ccccc1)Nc1nncs1 | > 44.6 |
| O=c1oc(/C=C/c2ccc([N+](=O)[O-])s2)nc2ccccc12 | 0.5 (≈ 1.67 µM) |
| COC(c1ccccc1)c1nnc(CCC(=O)NC2CCCCC2)o1 (stereo not drawn) | > 51.5 |
| CCCc1cc(C(=O)Nc2cc(Cl)ccc2O)no1 | 0.6 (≈ 2.14 µM) |
| Cc1cc(C)c(C(=O)Nn2c(C)nc3ccccc3c2=O)cc1C | > 48.2 |
| O=C1CN(C(=S)Nc2ccccc2Cl)CCN1 | > 40.5 |
| O=C(O)c1ccc(N=Cc2c(O)ccc3oc4c(c23)CCCC4)cc1 | > 50.3 |
| Cc1ccc(C(=O)NC2CC(C)(C)NC(C)(C)C2)cc1 | 40.2 (≈ 146 µM) |

| SMILES | solubility kinetic [µg/mL] |
| --- | --- |
| Cc1ccccc1OCC(=O)Nc1ccncc1 | > 36.3 |
| O=S(=O)(Nc1ccccc1N1CCCCC1)c1cccs1 | 1.2 (≈ 3.72 µM) |
| CCn1c(SCC#N)nc2cc(S(=O)(=O)N3CCOCC3)ccc21 | > 55 |
| O=C(NC(c1ccccc1)c1ccccc1)N1CCOCC1 | > 44.5 |
| NS(=O)(=O)c1ccc(NC(=O)c2cccc(Cl)c2)cc1 | 10 (≈ 32.2 µM) |
| Nc1cc2c(cc1Cl)N(Cc1ccccc1)C(=O)CO2 | > 43.3 |
| Cn1cc(/C=C/C(=O)c2ccccc2)c2ccccc21 | 0.7 (≈ 2.68 µM) |
| Cc1c(C)n(-c2ccccc2)c2ncnc(NCCN(C)C)c12 | > 46.4 |
| O=C(C#Cc1ccccc1)Nc1ccc(F)cc1 | 2.4 (≈ 10 µM) |
| Cc1cccc(C(=O)Nc2ccc3ccccc3c2)c1 | < 0.6 |
| O=S(=O)(Nc1ccccc1)c1ccc2c(c1)CCO2 | 37.7 (≈ 137 µM) |
| CC(C)CCn1c2ccccc2c2cc(CC(N)=O)ccc21 | 0.4 (≈ 1.36 µM) |
| COc1cc(=O)[nH]c(SC(C)C(=O)Nc2cc(C)on2)n1 (stereo not drawn) | > 46.5 |
| O=C(Nc1nc2ccc(Cl)cc2s1)C1CC1 | 4.8 (≈ 19 µM) |
| COc1cc2ccccc2cc1C(=O)Nc1ccc(C)cn1 | < 0.3 |
| O=C(c1cc([N+](=O)[O-])ccc1N1CCCC1)N1CCCCC1 | 25.9 (≈ 85.4 µM) |
| O=C(NCc1ccccc1Cl)c1cc2ccccc2oc1=O | < 0.7 |
| O=c1[nH][nH]c2ccccc2c1=O | > 24.3 |
| Cc1cc(C(=O)OCC(N)=O)c(C)n1-c1ccccc1 | 40.1 (≈ 147 µM) |
| COC(=O)CC(c1ccc(F)cc1)n1c(C)ccc1C (stereo not drawn) | 15.7 (≈ 57 µM) |
| O=C(Nc1ccc(Br)cc1)c1ccccc1Br | 7.3 (≈ 20.6 µM) |
| O=C(O)c1cccnc1SCc1cccc(Br)c1 | > 48.6 |
| Cc1cc2c(cc1C)N(Cc1ccc(Cl)cc1)C1=NCCCN12 | > 48.9 |
| O=C(NC1CC1)c1nc(Cn2ccc([N+](=O)[O-])n2)no1 | > 41.7 |
| CN(C(=O)CSc1nc(-c2cccs2)nc2ccccc12)C1CCS(=O)(=O)C1 (stereo not drawn) | 2.5 (≈ 5.77 µM) |

| SMILES | solubility kinetic [µg/mL] |
| --- | --- |
| CC1(CCBr)C(=O)N(c2ccccc2)c2ccccc21 (stereo not drawn) | 22.9 (≈ 69.3 µM) |
| Cc1cc(C=O)c(C)n1C1CC1 | 17.6 (≈ 108 µM) |
| Clc1ccc(CNc2cnccn2)cc1Cl | > 38.1 |
| Cn1c(=O)[nH]c(=O)c2cc(C(=O)c3cc(F)ccc3O)cnc21 | 8 (≈ 25.4 µM) |
| CC(=O)N(Cc1ccccc1)c1nc(-c2ccccc2)cs1 | < 0.3 |
| CN(C)c1cccc(C(=O)NCC(c2ccco2)N(C)C)c1 (stereo not drawn) | > 45.2 |
| NC(=S)Nc1ccc(F)c(F)c1F | > 30.9 |
| COc1ccc2[nH]c(C(=O)Nc3ccc(C)c(F)c3)cc2c1 | 0.7 (≈ 2.35 µM) |
| CCN(C(=O)COC(=O)c1ccco1)c1cccc2ccccc12 | 47.4 (≈ 147 µM) |
| Cc1ccc(NC(=O)C(=O)c2c[nH]c3ccccc23)cc1 | < 0.3 |
| O=C(c1c(F)cccc1F)N(Cc1cccs1)C1CCCC1 | 30.3 (≈ 94.3 µM) |
| Cc1ccccc1Cn1c(C)cc(C)c(C#N)c1=O | 8.1 (≈ 32.1 µM) |
| O=C(COc1ccccc1F)OCC(=O)c1ccc([N+](=O)[O-])cc1 | 46.8 (≈ 140 µM) |
| CCc1ccccc1NC(=O)C1CC(c2ccc(OC)cc2)=NO1 (stereo not drawn) | 45.3 (≈ 140 µM) |
| CCCNC(=O)CCn1c(=S)oc2ccccc21 | > 39.7 |
| COc1cc(/C=C/C(=O)O)cc(S(=O)(=O)NCC2CCCO2)c1OC (stereo not drawn) | 53.3 (≈ 144 µM) |
| NC(=O)COc1ccc(C(=O)/C=C2/C(=O)Nc3ccccc32)cc1 | 6.4 (≈ 19.9 µM) |
| O=c1cc(O)c2c(=O)n(Cc3ccccc3)c3ccccc3c2o1 | 32.6 (≈ 102 µM) |
| Clc1ccc(CN2CCN(c3ncccn3)CC2)cc1 | 29.6 (≈ 102 µM) |
| Cc1ccc2c(c1)c1c3n2CCN(CC#N)C3CCC1 (stereo not drawn) | 1.1 (≈ 4.15 µM) |
| O=C(NC1CCCC1)c1cc(-c2ccccc2)on1 | 4 (≈ 15.6 µM) |
| Cl.c1csc(CN2CCNCC2)c1 | > 38.3 |
| Fc1ccc2nc(C(F)(F)F)cc(N3CCOCC3)c2c1 | 11.3 (≈ 37.6 µM) |
